This is an account of results in article PMC7998309, “Structural-Based Optimizations of the Marine-Originated Meridianin C as Glucose Uptake Agents by Inhibiting GSK-3β” (Marine Drugs, 2021).

Series [1] in a line: MTT assay for cell viability (cytotoxicity). In kind it is cell-based, human. Conditions: human; HepG2 cells, 48 h incubation, MTT. The protocol: (§1) The hepatocyte cell line HepG2 cells obtained from the Type Culture Collection of the Chinese Academy of Sciences (Shanghai, China) were maintained in high-glucose DMEM (Gibco) supplemented with 10% fetal bovine serum (FBS) and 1% penicillin-streptomycin in an atmosphere of 5% CO2 at 37 °C.
Into a 96-well plate, 1 × 10^3 HepG2 cells per well were seeded. After 24 h, stock solutions of test compounds in DMSO were diluted in DMEM to ≤0.1% final DMSO concentration. Cells were treated with various concentrations (2.5–25 µM) of tested compounds for 48 h, and the MTT solution (0.5 mg/mL) was added. After 4 h of incubation at 37 °C for MTT-formazan formation, the supernatant was discarded and 100 µL of DMSO was applied into each well to dissolve formazan crystals. Absorbance at 490 nm was determined spectrophotometrically by using a microplate reader (Epoch, BioTek Instruments, Inc., Winooski, VT, USA).

Series [2] relates to HepG2 cells. Nature of the series: Cell glucose uptake assay in HepG2 cells. The following applies: relative glucose uptake at 5 µM in HepG2 cells, 3 h, compared with original glucose concentration of the medium; na = not active at 5 µM. Format: cell-based, human. As to the method:
as §1
Into a 96-well plate, 5 × 10^3 HepG2 cells per well were seeded. After 48 h, phenol red-free DMEM (Gibco) with 1% FBS was transferred to deprive the cells overnight, and then the tested compounds dissolved in a glucose-HEPES buffer (glucose concentration was 100 µg/mL) at a concentration of 5 µM were added to the culture system. Three hours later, the culture supernatants were collected and the glucose concentrations were detected using the Glucose (GO) Assay Kit (Sigma-Aldrich Corp.). Compared with the original glucose concentration of the buffer, the relative glucose uptake was calculated.

The CC50 is the concentration that lowers cell viability or growth by half. Read a low CC50 as harm at low concentration. Broadly, the melting point is the temperature of the solid-liquid transition. Consider `Cc1ccc(C(=O)Nc2ccc(-c3cnc(N)nc3-c3c[nH]c4ccc(Br)cc34)cc2)cc1` [A21, N-(4-(2-amino-4-(5-bromo-1H-indol-3-yl)pyrimidin-5-yl)phenyl)-4-methylbenzamide], for which the melting point fell in the range of 291.7 to 292.4 °C. This compound gave a half-maximal cytotoxic concentration (CC50) at 48 h in series [1] of 6.9 µM. The “Cell Glucose Uptake (%)” value in series [2] is reported as 24%.
`Cc1cccc(Nc2nccc(-c3c[nH]c4ccc(Br)cc34)n2)c1` [B14, 4-(5-Bromo-1H-indol-3-yl)-N-(m-tolyl) pyrimidin-2-amine] had a melting point of 141.5 to 142.3 °C. For the same compound, the half-maximal cytotoxic concentration (CC50) at 48 h in series [1] came out at 8.6 µM.
The like results for `Cc1ccc(Nc2nccc(-c3c[nH]c4ccc(Br)cc34)n2)cc1` [B15, 4-(5-Bromo-1H-indol-3-yl)-N-(p-tolyl) pyrimidin-2-amine] were, in that order, 227.8 to 228.6 °C and 15.5 µM.
The like results for `COc1cccc(Nc2nccc(-c3c[nH]c4ccc(Br)cc34)n2)c1` [B17, 4-(5-Bromo-1H-indol-3-yl)-N-(3-methoxyphenyl) pyrimidin-2-amine] were, in that order, 208.7 to 209.3 °C and 10.6 µM.
Turning to `CC(C)c1cccc(Nc2nccc(-c3c[nH]c4ccc(Br)cc34)n2)c1` [B20, 4-(5-Bromo-1H-indol-3-yl)-N-(3-isopropylphenyl) pyrimidin-2-amine], the melting point was 152.6 to 153.4 °C. This compound also registered a CC50 at 48 h in series [1] of 12.5 µM.
For the compound `CC(C)c1ccc(Nc2nccc(-c3c[nH]c4ccc(Br)cc34)n2)cc1` [B21, 4-(5-Bromo-1H-indol-3-yl)-N-(4-isopropylphenyl) pyrimidin-2-amine], the melting point was 218.7 to 219.4 °C. For the same compound, in series [1], the CC50 at 48 h was found to be 13 µM.
`Brc1ccc2[nH]cc(-c3ccnc(Nc4ccccc4)n3)c2c1` [B22, 4-(5-Bromo-1H-indol-3-yl)-N-phenylpyrimidin-2-amine]: the melting point was 197.6 to 198.7 °C. The compound further displayed a CC50 at 48 h in series [1] of 10.4 µM.
`Fc1cc(F)cc(Nc2nccc(-c3c[nH]c4ccc(Br)cc34)n2)c1` [B23, 4-(5-Bromo-1H-indol-3-yl)-N-(3,5-difluorophenyl) pyrimidin-2-amine] displayed a melting point of 251.3 to 252.2 °C. Also, half-maximal cytotoxicity in series [1] (CC50 at 48 h) was put at 16.1 µM.
In turn, `Clc1cc(Cl)cc(Nc2nccc(-c3c[nH]c4ccc(Br)cc34)n2)c1` [B24, 4-(5-Bromo-1H-indol-3-yl)-N-(3,5-dichlorophenyl) pyrimidin-2-amine] displayed a melting point of 223.6 to 224.3 °C. Further, in series [1], the CC50 at 48 h came to 10.5 µM.
Regarding `Brc1cc(Br)cc(Nc2nccc(-c3c[nH]c4ccc(Br)cc34)n2)c1` [B25, 4-(5-Bromo-1H-indol-3-yl)-N-(3,5-dibromophenyl) pyrimidin-2-amine], the melting point fell in the range of 193.4 to 193.7 °C. In series [1], the CC50 at 48 h was more than 25 µM.
The matching figures for `FC(F)(F)c1cc(Nc2nccc(-c3c[nH]c4ccc(Br)cc34)n2)cc(C(F)(F)F)c1` [B26, N-(3,5-bis(trifluoromethyl)phenyl)-4-(5-bromo-1H-indol-3-yl) pyrimidin-2-amine]: 220.9 to 221.3 °C and 11.8 µM.
The like results for `Cc1cc(C)cc(Nc2nccc(-c3c[nH]c4ccc(Br)cc34)n2)c1` [B27, 4-(5-Bromo-1H-indol-3-yl)-N-(3,5-dimethylphenyl) pyrimidin-2-amine] were, in that order, 184.6 to 185.3 °C and 6 µM.
The like results for `COc1cc(Nc2nccc(-c3c[nH]c4ccc(Br)cc34)n2)cc(OC)c1` [B28, 4-(5-Bromo-1H-indol-3-yl)-N-(3,5-dimethoxyphenyl) pyrimidin-2-amine] were, in that order, 255.6 to 256.8 °C and 10 µM.
Regarding `Cn1sc(=O)n(Cc2ccccc2)c1=O` [TDZD-8, 4-benzyl-2-methyl-1,2,4-thiadiazolidine-3,5-dione, reference compound], in series [1], the CC50 at 48 h was more than 25 µM. The “Cell Glucose Uptake (%)” value in series [2] is listed as 16%.
The like results for `Nc1nccc(-c2c[nH]c3ccc(Br)cc23)n1` [meridianin C] were, in that order, 13 µM and less than 5%.
